# In patent US20170051034A1 (Novo Nordisk A/S, priority 2010, published 2017):
# Numbered stars: 1 amine (or outer) side, 2 acyl side, 3 side chain; on linkers, the order of the positions; unused ones are H or OH. Side chains are listed from the residue outwards. Peptide text beside a SMILES is read from it. * marks the point of attachment. Palmitoyl(16-(5-tetrazolyl)) = O=C(CCCCCCCCCCCCCCCc1nnn[nH]1)*; C18 diacid = O=C(O)CCCCCCCCCCCCCCCCC(=O)*; C16 diacid = O=C(O)CCCCCCCCCCCCCCC(=O)*; γGlu = O=C(O)[C@H](CCC(=O)[*:2])N[*:1]; AEEA = NCCOCCOCC(=O)O
# Biological target: glucagon receptor (Homo sapiens, UniProt P47871)
# Assay: cell-based
# Description: The cells (14000 per well) were incubated (37° C., 5% CO2) overnight in 384-well plates. Next day the cells were loaded with a calcium responsive dye that only distributed into the cytoplasm. Probenecid, an inhibitor of the organic anion transporter, was added to prevent the dye from leaving the cell. A PDE inhibitor was added to prevent formatted cAMP from being degraded. […] End point data were collected after 6 minutes. An increase in intracellular cAMP was proportional to an increased in calcium concentrations in the cytoplasm. […] EC50-values were calculated in Prism5.
# glucagon receptor, sequence (P47871 26-477): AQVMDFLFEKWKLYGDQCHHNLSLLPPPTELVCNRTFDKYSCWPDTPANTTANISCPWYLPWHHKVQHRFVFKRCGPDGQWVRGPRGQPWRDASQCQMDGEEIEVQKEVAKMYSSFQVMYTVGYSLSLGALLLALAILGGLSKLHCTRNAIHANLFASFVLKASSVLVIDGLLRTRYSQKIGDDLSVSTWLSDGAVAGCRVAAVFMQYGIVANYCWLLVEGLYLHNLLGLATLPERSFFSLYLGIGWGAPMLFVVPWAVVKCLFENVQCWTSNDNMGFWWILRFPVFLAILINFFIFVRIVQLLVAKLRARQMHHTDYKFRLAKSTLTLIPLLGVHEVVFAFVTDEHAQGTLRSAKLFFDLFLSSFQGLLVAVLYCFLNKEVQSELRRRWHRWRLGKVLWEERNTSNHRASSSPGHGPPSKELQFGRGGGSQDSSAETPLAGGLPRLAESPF
row,Structure (SMILES),EC50
1,"CC(C)C[C@H](NC(=O)[C@H](Cc1ccc(O)cc1)NC(=O)[C@H](CCCCN)NC(=O)[C@H](CO)NC(=O)[C@H](Cc1ccc(O)cc1)NC(=O)[C@H](CC(=O)O)NC(=O)[C@H](CO)NC(=O)[C@@H](NC(=O)[C@H](Cc1ccccc1)NC(=O)[C@@H](NC(=O)CNC(=O)[C@H](CCC(N)=O)NC(=O)[C@H](CO)NC(=O)[C@@H](N)Cc1c[nH]cn1)[C@@H](C)O)[C@@H](C)O)C(=O)N[C@@H](CC(=O)O)C(=O)N[C@@H](CO)C(=O)N[C@@H](CCCCN)C(=O)N[C@@H](CCCCN)C(=O)N[C@@H](C)C(=O)N[C@@H](CCC(N)=O)C(=O)N[C@@H](CCC(=O)O)C(=O)N[C@@H](Cc1ccccc1)C(=O)N[C@H](C(=O)N[C@@H](CCCCNC(=O)COCCOCCNC(=O)COCCOCCNC(=O)CC[C@H](NC(=O)CCCCCCCCCCCCCCCCC(=O)O)C(=O)O)C(=O)N[C@@H](Cc1c[nH]c2ccccc12)C(=O)N[C@@H](CC(C)C)C(=O)N[C@@H](CC(C)C)C(=O)N[C@@H](CC(=O)O)C(=O)N[C@H](C(=O)O)[C@@H](C)O)C(C)C [Example 67, N^ε24-[2-[2-[2-[[2-[2-[2-[[(4S)-4-carboxy-4-(17-carboxyheptadecanoylamino)butanoyl]amino]ethoxy]ethoxy]acetyl]amino]ethoxy]ethoxy]acetyl]-[Lys^17,Lys^18,Glu^21,Lys^24,Leu^27,Asp^28]-Glucagon] (H-HSQGTFTSDYSKYLDSKKAQEFVK([AEEA-AEEA-γGlu-C18 diacid])WLLDT-OH)",0.051 nM
2,"CC(C)C[C@H](NC(=O)[C@H](CC(C)C)NC(=O)[C@H](Cc1c[nH]c2ccccc12)NC(=O)[C@H](CCC(N)=O)NC(=O)[C@@H](NC(=O)[C@H](Cc1ccccc1)NC(=O)[C@H](CCC(=O)O)NC(=O)[C@H](CCC(N)=O)NC(=O)[C@H](C)NC(=O)[C@H](CCCCN)NC(=O)[C@H](CCCCN)NC(=O)[C@H](CO)NC(=O)[C@H](CC(=O)O)NC(=O)[C@H](CC(C)C)NC(=O)[C@H](Cc1ccc(O)cc1)NC(=O)[C@H](CCCCN)NC(=O)[C@H](CO)NC(=O)[C@H](Cc1ccc(O)cc1)NC(=O)[C@H](CC(=O)O)NC(=O)[C@H](CO)NC(=O)[C@@H](NC(=O)[C@H](Cc1ccccc1)NC(=O)[C@@H](NC(=O)CNC(=O)[C@H](CCC(N)=O)NC(=O)[C@H](CO)NC(=O)[C@@H](N)Cc1c[nH]cn1)[C@@H](C)O)[C@@H](C)O)C(C)C)C(=O)N[C@@H](CC(N)=O)C(=O)N[C@@H](CCCCNC(=O)COCCOCCNC(=O)COCCOCCNC(=O)CC[C@H](NC(=O)CCCCCCCCCCCCCCCCC(=O)O)C(=O)O)C(=O)O [Example 68, N^ε29-[2-[2-[2-[[2-[2-[2-[[(4S)-4-carboxy-4-(17-carboxyheptadecanoylamino)butanoyl]amino]ethoxy]ethoxy]acetyl]amino]ethoxy]ethoxy]acetyl]-[Lys^17,Lys^18,Glu^21,Leu^27,Lys^29]-Glucagon] (H-HSQGTFTSDYSKYLDSKKAQEFVQWLLNK([AEEA-AEEA-γGlu-C18 diacid])-OH)",0.053 nM
3,"CC(C)C[C@H](NC(=O)[C@H](Cc1ccc(O)cc1)NC(=O)[C@H](CCCCN)NC(=O)[C@H](CO)NC(=O)[C@H](Cc1ccc(O)cc1)NC(=O)[C@H](CC(=O)O)NC(=O)[C@H](CO)NC(=O)[C@@H](NC(=O)[C@H](Cc1ccccc1)NC(=O)[C@@H](NC(=O)CNC(=O)[C@H](CCC(N)=O)NC(=O)[C@H](CO)NC(=O)[C@@H](N)Cc1c[nH]cn1)[C@@H](C)O)[C@@H](C)O)C(=O)N[C@@H](CC(=O)O)C(=O)N[C@@H](CO)C(=O)N[C@@H](CCCCN)C(=O)N[C@@H](CCCCN)C(=O)N[C@@H](C)C(=O)N[C@@H](CCC(N)=O)C(=O)N[C@@H](CCC(=O)O)C(=O)N[C@@H](Cc1ccccc1)C(=O)N[C@H](C(=O)N[C@@H](CCCCNC(=O)COCCOCCNC(=O)COCCOCCNC(=O)CC[C@H](NC(=O)CCCCCCCCCCCCCCC(=O)O)C(=O)O)C(=O)N[C@@H](Cc1c[nH]c2ccccc12)C(=O)N[C@@H](CC(C)C)C(=O)N[C@@H](CC(C)C)C(=O)N[C@@H](CO)C(=O)N[C@H](C(=O)O)[C@@H](C)O)C(C)C [Example 69, N^ε24-[2-[2-[2-[[2-[2-[2-[[(4S)-4-carboxy-4-(15-carboxypentadecanoylamino)butanoyl]amino]ethoxy]ethoxy]acetyl]amino]ethoxy]ethoxy]acetyl]-[Lys^17,Lys^18,Glu^21,Lys^24,Leu^27,Ser^28]-Glucagon] (H-HSQGTFTSDYSKYLDSKKAQEFVK([AEEA-AEEA-γGlu-C16 diacid])WLLST-OH)",0.006 nM
4,"CC(C)C[C@H](NC(=O)[C@H](Cc1ccc(O)cc1)NC(=O)[C@H](CCCCN)NC(=O)[C@H](CO)NC(=O)[C@H](Cc1ccc(O)cc1)NC(=O)[C@H](CC(=O)O)NC(=O)[C@H](CO)NC(=O)[C@@H](NC(=O)[C@H](Cc1ccccc1)NC(=O)[C@@H](NC(=O)CNC(=O)[C@H](CCC(N)=O)NC(=O)[C@H](CO)NC(=O)[C@@H](N)Cc1c[nH]cn1)[C@@H](C)O)[C@@H](C)O)C(=O)N[C@@H](CC(=O)O)C(=O)N[C@@H](CO)C(=O)N[C@@H](CCCCN)C(=O)N[C@@H](CCCCN)C(=O)N[C@@H](C)C(=O)N[C@@H](CCC(N)=O)C(=O)N[C@@H](CCC(=O)O)C(=O)N[C@@H](Cc1ccccc1)C(=O)N[C@H](C(=O)N[C@@H](CCCCNC(=O)COCCOCCNC(=O)COCCOCCNC(=O)CC[C@H](NC(=O)CCCCCCCCCCCCCCCc1nnn[nH]1)C(=O)O)C(=O)N[C@@H](Cc1c[nH]c2ccccc12)C(=O)N[C@@H](CC(C)C)C(=O)N[C@@H](CC(C)C)C(=O)N[C@@H](CO)C(=O)N[C@H](C(=O)O)[C@@H](C)O)C(C)C [Example 70, N^ε24-[2-[2-[2-[[2-[2-[2-[[(4S)-4-carboxy-4-[16-(1H-tetrazol-5-yl)hexadecanoylamino]butanoyl]amino]ethoxy]ethoxy]acetyl]amino]ethoxy]ethoxy]acetyl]-[Lys^17,Lys^18,Glu^21,Lys^24,Leu^27,Ser^28]-Glucagon] (H-HSQGTFTSDYSKYLDSKKAQEFVK([AEEA-AEEA-γGlu-Palmitoyl(16-(5-tetrazolyl))])WLLST-OH)",0.134 nM
5,"CC(C)C[C@H](NC(=O)[C@H](Cc1ccc(O)cc1)NC(=O)[C@H](CCCCN)NC(=O)[C@H](CO)NC(=O)[C@H](Cc1ccc(O)cc1)NC(=O)[C@H](CC(=O)O)NC(=O)[C@H](CO)NC(=O)[C@@H](NC(=O)[C@H](Cc1ccccc1)NC(=O)[C@@H](NC(=O)CNC(=O)[C@H](CCC(N)=O)NC(=O)[C@H](CO)NC(=O)[C@@H](N)Cc1c[nH]cn1)[C@@H](C)O)[C@@H](C)O)C(=O)N[C@@H](CC(=O)O)C(=O)N[C@@H](CO)C(=O)N[C@@H](CCCCN)C(=O)N[C@@H](CCCCN)C(=O)N[C@@H](C)C(=O)N[C@@H](CCC(N)=O)C(=O)N[C@@H](CCC(=O)O)C(=O)N[C@@H](Cc1ccccc1)C(=O)N[C@H](C(=O)N[C@@H](CCCCNC(=O)COCCOCCNC(=O)CC[C@H](NC(=O)CCCCCCCCCCCCCCCCC(=O)O)C(=O)O)C(=O)N[C@@H](Cc1c[nH]c2ccccc12)C(=O)N[C@@H](CC(C)C)C(=O)N[C@@H](CC(C)C)C(=O)N[C@@H](CO)C(=O)N[C@H](C(=O)O)[C@@H](C)O)C(C)C [Example 71, N^ε24-[2-[2-[2-[[(4S)-4-carboxy-4-(17-carboxyheptadecanoylamino)butanoyl]amino]ethoxy]ethoxy]acetyl]-[Lys^17,Lys^18,Glu^21,Lys^24,Leu^27,Ser^28]-Glucagon] (H-HSQGTFTSDYSKYLDSKKAQEFVK([AEEA-γGlu-C18 diacid])WLLST-OH)",0.032 nM
